Common to all, as to assay type: physicochemical
A short description of data set [1]: Dissolution test for L-DOPA ethyl ester/carbidopa dispersible tablets in water (USP dissolution apparatus, HPLC-UV). Conditions: 100 ml purified water, room temperature, paddles 200 rpm. As for the experimental part: The dissolution of L-DOPA ethyl ester and carbidopa dispersible tablets was measured in water at room temperature according to the following methodology which was designed to simulate the administration of these tablets to patients. The recommended use is to place a tablet (384 mg) for a few seconds in about 100 mls of water, and to dissolve while swirling or stirring. The suspension should be drunk within 30 minutes. In order to automate the measurement, a USP 6-Pot Dissolution Apparatus is used. Each of 6 tablets are dissolved in 100 ml of purified water in a 200 ml vessel at room temperature (23±2° C.). This is the minimum volume which may be used with the USP Dissolution Apparatus. The solutions are stirred with paddles rotating at 200 rpm, which simulates the turbulence caused when the solution is stirred in a cup, with a teaspoon. […] In this experiment specifically, the amount of L-DOPA ethyl ester or carbidopa is determined by using a 10 cm C18 column, based on 3 μ-diameter spherical silica particles with 100 Å pore size. The elution solvents comprise a gradient of acetonitrile and phosphate buffer with ion-pairing reagent (at pH 2.7). The detection technique is ultraviolet absorption at 280 nm, the wavelength of maximum absorption for both L-DOPA ethyl ester and Carbidopa.

Data set [2] can be described thus: L-DOPA ethyl ester degradation in solution and tablets, measured as level of L-DOPA over six months. The settings on record: oral solution acidified with HCl. As for the experimental part:
A comparison of L-DOPA ethyl ester (LDEE) degradation in LDEE oral solution (4° C.), and in two environmental conditions of LDEE and Carbidopa dispersible tablets (at 25° C./60% RH and at 40° C./75% RH), was performed by measuring the change in levels of L-DOPA in samples over a six month period of time. L-DOPA is the main degradation product of L-DOPA ethyl ester. Elevation in the level of L-DOPA indicates degradation of LDEE.
The change in the level of L-DOPA with time, expressed as percent of the concentration of LDEE in the sample, was determined in LDEE and Carbidopa Dispersible Tablets (Formulation V, packed in aluminum blisters) and in LDEE oral solution (packed in PET bottles). The composition of the solution was (per 1 ml): 57.1 mg LDEE, 1.2 mg Methylparaben, 1.6 mg Saccharin sodium, 0.1 mg Edetate disodium and cherry flavor. The solution was acidified with HCl to pH 4.0, in which the stability of LDEE is maximal. The solution was kept in refrigeration (4° C.) while the tablets were kept at room conditions (25° C. and 60% relative humidity) or in accelerated stability conditions (40° C. and 75% relative humidity). The results are shown below in Table 4 and in FIG. 4: […]

Data set [3] in a line: Stability of L-DOPA ethyl ester composition on incubation at 40° C. The settings on record: after incubation for 6 months at 40° C.

`C[C@@](Cc1ccc(O)c(O)c1)(NN)C(=O)O` [Carbidopa, reference compound]: the “Percentage of Dissolution” value is 64.3% in data set [1] (1 minute), 87.6% in data set [1] (2 minutes) and 101.4% in data set [1] (5 minutes).

As to `CCOC(=O)[C@@H](N)Cc1ccc(O)c(O)c1` [L-DOPA Ethyl Ester, L-DOPA ethyl ester], the “pH at which the stability of LDEE is maximal” value in data set [2] turned out to be 4.0. In data set [3], the “L-DOPA ethyl ester content remaining” value is recorded as “at least 97 % by weight of the active ingredient”. Moreover, the entries for the “Percentage of Dissolution” value in data set [1] (1 minute), in data set [1] (2 minutes) and in data set [1] (5 minutes) were 67.2%, 90.1% and 102.7%, respectively.
